Data reported in US9440957B2, “Compounds and compositions for modulating EGFR Activity” (Novartis AG, priority 2012, dated 2016).
Read-outs that look alike come from different tables or passages of the source.

Legend:
HEKn (EGFR WT) = HEKn (EGFR WT) (Homo sapiens, UniProt P00533); test: EGFR target modulation in HEKn (EGFR-WT) cell line (phospho-EGFR Y1173 ELISA); type: cell-based; settings: value outside parentheses
Protocol: EGFR Target Modulation in HEKn (EGFR-WT) Cell Line Tissue Culture. Human neonatal epithelial keratinocytes (Invitrogen #C-001-5C) were maintained in EpiLife media (Invitrogen #[…]) supplemented with growth factors (Invitrogen #S-001-5). Cells were harvested with 0.05% Trypsin/EDTA (Hyclone #SH30236.01) and quenched with 5% FBS/EpiLife media. […] The serial diluted compounds were transferred to the plate containing cells by using a 50 nl Pin Head device (Perkin Elmer) and the cells were placed back in the incubator for 3 hours. […] Phospho-EGFR (Y1173) ELISA. Solid white high-binding ELISA plates (Greiner #781074) were coated with 5 ug/ml anti-EGFR capture antibody (R&D Systems #AF231) overnight in 50 mM carbonate/bicarbonate pH 9.5 buffer. […] Wash steps were carried out with a Bio-Tek ELx405 SelectTM using 4 cycles of 100 ul TBS-T (20 mM Tris, 137 mM NaCl, 0.05% Tween-20) per well. […] Lysis was allowed to occur for 20 minutes on ice. A 25 ul aliquot was added to each well of the blocked ELISA plate and incubated overnight at 4° C. with gentle shaking. […] After washing, 1:2,000 anti-rabbit-HRP (Cell Signaling #7074) in 0.2% BSA/TBS-T was added and incubated for 1 hour at room temperature. Chemiluminescent detection was carried out with SuperSignal ELISA Pico substrate (ThermoScientific #37069). Signal was read on EnVision plate reader using built-in UltraLUM setting. Data Analysis. Control cells treated with EGF were set to 100% maximum response. […] With these parameters, the IC50's for each compound in each cell line was calculated using non-linear curve fitting analysis.

[1] = target: human EGFR WT (NIH/3T3 cells, EGF-induced) (Homo sapiens, UniProt P00533); test: EGFR target modulation in engineered NIH/3T3 cell lines (phospho-EGFR Y1068 AlphaLISA), EGFR WT; type: cell-based; settings: engineered NIH/3T3 cells, read-out: NIH3T3 IC50 (μM) EGFR (WT)
In short: (§1)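 Engineered NIH/3T3 cells were plated overnight, then exposed to a 12-point 1:3 compound series (from a 10 μM stock) for 3 hours at 37 °C. WT-expressing cells alone were stimulated with 50 ng/ml EGF for 5 minutes before lysis. IC50s came from non-linear fits of AlphaLISA signal.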

[2] = target: human EGFR L858R (NIH/3T3 cells) (Homo sapiens, UniProt P00533, L858R); test: EGFR target modulation in engineered NIH/3T3 cell lines (phospho-EGFR Y1068 AlphaLISA), EGFR L858R; type: cell-based; settings: engineered NIH/3T3 cells, read-out: NIH3T3 IC50 (μM) EGFR (L858R)
In short: as §1

EGFR(L858R/T790M) = target: T1, EGFR(L858R/T790M) (Homo sapiens, UniProt P00533, L858R/T790M); test: EGFR biochemical assay (HTRF), IC50 determinations
T1 construct: purchased from Carna (GST-a.a. 669-1210)
In short: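 Two formats were run: compound preincubated at room temperature with enzyme and biotin-TK peptide before ATP starts the reaction, or no preincubation with enzyme added last. Reactions ran 60 min at room temperature and were stopped with EDTA. Phosphopeptide was read by HTRF (PT66K/SAXL, 1 h).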

[3] = target: human EGFR L858R/T790M (NIH/3T3 cells) (Homo sapiens, UniProt P00533, L858R/T790M); test: EGFR target modulation in engineered NIH/3T3 cell lines (phospho-EGFR Y1068 AlphaLISA), EGFR L858R/T790M; type: cell-based; settings: engineered NIH/3T3 cells, read-out: NIH3T3 IC50 (μM) EGFR (L858R/T790M)
In short: as §1

H1975 (EGFR L858/T790M) = H1975 (EGFR L858/T790M) (Homo sapiens, UniProt P00533, L858R/T790M); test: EGFR target modulation in H1975 cell line (phospho-EGFR Y1173 ELISA); type: cell-based
Protocol: (§2) EGFR Target Modulation in H1975, H3255 and HCC827 Cell Lines Tissue Culture. Cells were maintained in 10% FBS/RPMI supplemented with 100 μg/ml Penicillin/Streptomycin (Hyclone #SH30236.01). […] The cells were allowed to incubate overnight in a 37° C., 5% CO2 humidified tissue culture incubator. […] The serial diluted compounds were transferred to the plate containing cells by using a 50 nl Pin Head device (Perkin Elmer) and the cells were placed back in the incubator for 3 hours. Phospho-EGFR ([…]) Target Modulation Assay. The media was reduced to 20 ul using a Bio-Tek ELx 405 SelectTM plate washer. […] The plates were shaken at 4° C. for 20 minutes. An aliquot of 25 ul from each well was transferred to pEGFR(Y1173) ELISA plates for analysis. Phospho-EGFR ([…]) ELISA. Solid white high-binding ELISA plates (Greiner #781074) were coated with 5 ug/ml anti-EGFR capture antibody (R&D Systems #AF231) overnight in 50 mM carbonate/bicarbonate pH 9.5 buffer. Plates were blocked with 1% BSA (Sigma #A7030) in PBS for 1 hour at room temperature. Wash steps were carried out with a Bio-Tek ELx405 SelectTM using 4 cycles of 100 ul TBS-T (20 mM Tris, 137 mM NaCl, 0.05% Tween-20) per well. […] Lysis was allowed to occur for 20 minutes on ice. A 25 ul aliquot was added to each well of the blocked ELISA plate and incubated overnight at 4° C. with gentle shaking. […] After washing, 1:2,000 anti-rabbit-HRP (Cell Signaling #7074) in 0.2% BSA/TBS-T was added and incubated for 1 hour at room temperature. Chemiluminescent detection was carried out with SuperSignal ELISA Pico substrate (ThermoScientific #37069). Signal was read on EnVision plate reader using built-in UltraLUM setting. Data Analysis. Control cells treated with EGF were set to 100% maximum response. […] With these parameters, the IC50's for each compound in each cell line was calculated using non-linear curve fitting analysis.

H3255 (EGFR L858R) = H3255 (EGFR L858R) (Homo sapiens, UniProt P00533, L858R); test: EGFR target modulation in H3255 cell line (phospho-EGFR Y1173 ELISA); type: cell-based
Protocol: as §2

[4] = EGFR (L858R/T790M) with 90 min pre-incubation, read-out: IC50 (μM) Column B
[5] = EGFR (L858R/T790M) with no pre-incubation, read-out: IC50 (μM) Column A

Sequence of H3255 (EGFR L858R) (P00533 25-1210 L858R): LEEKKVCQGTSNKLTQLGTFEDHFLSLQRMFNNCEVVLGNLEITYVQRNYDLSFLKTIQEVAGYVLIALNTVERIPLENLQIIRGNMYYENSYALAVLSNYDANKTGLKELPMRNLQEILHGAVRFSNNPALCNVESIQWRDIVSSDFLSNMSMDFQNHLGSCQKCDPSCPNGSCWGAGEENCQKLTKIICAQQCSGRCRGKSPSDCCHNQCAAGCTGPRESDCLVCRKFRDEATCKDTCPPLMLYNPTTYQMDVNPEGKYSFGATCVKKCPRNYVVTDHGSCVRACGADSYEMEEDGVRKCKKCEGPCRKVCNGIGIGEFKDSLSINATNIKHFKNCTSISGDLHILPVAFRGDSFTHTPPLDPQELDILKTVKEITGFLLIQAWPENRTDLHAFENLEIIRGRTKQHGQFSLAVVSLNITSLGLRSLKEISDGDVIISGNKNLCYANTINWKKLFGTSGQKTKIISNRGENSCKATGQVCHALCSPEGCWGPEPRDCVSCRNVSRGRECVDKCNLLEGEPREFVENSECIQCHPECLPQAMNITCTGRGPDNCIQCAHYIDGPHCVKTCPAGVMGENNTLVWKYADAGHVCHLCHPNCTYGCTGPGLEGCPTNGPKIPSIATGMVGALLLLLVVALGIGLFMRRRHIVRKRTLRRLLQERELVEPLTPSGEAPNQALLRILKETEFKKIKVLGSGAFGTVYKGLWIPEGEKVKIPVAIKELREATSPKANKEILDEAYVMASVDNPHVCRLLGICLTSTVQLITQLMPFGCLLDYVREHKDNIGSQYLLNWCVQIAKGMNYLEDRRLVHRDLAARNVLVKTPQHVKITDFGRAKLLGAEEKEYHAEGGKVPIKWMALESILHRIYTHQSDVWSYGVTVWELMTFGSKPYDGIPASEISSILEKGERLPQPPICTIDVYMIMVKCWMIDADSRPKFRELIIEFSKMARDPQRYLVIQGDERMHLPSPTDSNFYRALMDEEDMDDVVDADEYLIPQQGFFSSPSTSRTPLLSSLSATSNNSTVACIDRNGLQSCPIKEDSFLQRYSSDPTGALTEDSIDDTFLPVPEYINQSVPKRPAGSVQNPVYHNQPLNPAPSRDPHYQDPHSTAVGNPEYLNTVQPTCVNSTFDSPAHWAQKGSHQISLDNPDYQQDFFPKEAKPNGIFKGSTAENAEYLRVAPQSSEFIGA
Sequence of human EGFR L858R (NIH/3T3 cells) (P00533 25-1210 L858R): as above
Sequence of human EGFR L858R/T790M (NIH/3T3 cells) (P00533 25-1210 T790M/L858R): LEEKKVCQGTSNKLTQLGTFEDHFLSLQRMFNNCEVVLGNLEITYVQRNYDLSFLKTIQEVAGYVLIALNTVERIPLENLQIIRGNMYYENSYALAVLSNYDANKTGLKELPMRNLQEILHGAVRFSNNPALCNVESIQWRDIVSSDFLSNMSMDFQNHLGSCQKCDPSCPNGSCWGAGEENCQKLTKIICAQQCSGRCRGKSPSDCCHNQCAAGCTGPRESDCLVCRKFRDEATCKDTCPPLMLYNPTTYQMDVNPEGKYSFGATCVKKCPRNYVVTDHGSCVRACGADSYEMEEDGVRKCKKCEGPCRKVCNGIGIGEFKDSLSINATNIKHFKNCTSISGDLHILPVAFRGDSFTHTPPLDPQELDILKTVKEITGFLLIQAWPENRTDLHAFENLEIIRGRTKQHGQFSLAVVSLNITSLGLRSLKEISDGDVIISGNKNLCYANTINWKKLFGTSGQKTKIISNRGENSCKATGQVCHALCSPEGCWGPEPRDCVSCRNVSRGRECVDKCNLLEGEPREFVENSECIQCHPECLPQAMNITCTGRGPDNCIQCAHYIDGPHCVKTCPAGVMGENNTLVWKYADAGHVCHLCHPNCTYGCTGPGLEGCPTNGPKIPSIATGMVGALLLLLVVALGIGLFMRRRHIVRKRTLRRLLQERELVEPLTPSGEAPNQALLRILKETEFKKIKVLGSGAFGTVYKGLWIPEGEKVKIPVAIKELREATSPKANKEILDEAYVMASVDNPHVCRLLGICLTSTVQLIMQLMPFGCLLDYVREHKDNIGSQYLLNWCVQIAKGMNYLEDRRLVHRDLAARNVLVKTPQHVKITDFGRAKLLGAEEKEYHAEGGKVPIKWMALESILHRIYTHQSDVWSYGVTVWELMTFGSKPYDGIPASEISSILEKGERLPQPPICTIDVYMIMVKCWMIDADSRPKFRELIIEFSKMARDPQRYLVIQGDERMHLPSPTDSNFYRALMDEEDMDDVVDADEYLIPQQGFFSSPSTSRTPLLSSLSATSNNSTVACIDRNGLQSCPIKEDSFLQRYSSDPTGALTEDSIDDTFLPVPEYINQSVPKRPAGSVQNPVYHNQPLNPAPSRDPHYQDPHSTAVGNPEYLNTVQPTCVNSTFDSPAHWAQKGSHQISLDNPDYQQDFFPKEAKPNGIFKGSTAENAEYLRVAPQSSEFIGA
Sequence of H1975 (EGFR L858/T790M) (P00533 25-1210 T790M/L858R): as above

IC50 (HEKn (EGFR WT)) [nM]	IC50 [1] [µM]	IC50 [2] [µM]	IC50 (EGFR(L858R/T790M); [4]) [µM]	IC50 (EGFR(L858R/T790M); [5]) [µM]	IC50 [3] [µM]	IC50 (H1975 (EGFR L858/T790M)) [nM]	IC50 (H3255 (EGFR L858R)) [nM]	SMILES
74	0.019	0.001	< 0.001	0.002	0.001	1	2	Cc1cc(C(=O)Nc2nc3cccc(C)c3n2[C@@H]2CCCCN(C(=O)/C=C/CN(C)C)C2)ccn1 [Example 7, (R,E)-N-(1-(1-(4-(dimethylamino)but-2-enoyl)azepan-3-yl)-7-methyl-1H-benzo[d]imidazol-2-yl)-2-methylisonicotinamide]
82	0.021	0.001			0.001	1	2	Cc1cccc2nc(NC(=O)c3ccnc(C(F)(F)F)c3)n([C@@H]3CCCCN(C(=O)/C=C/CN(C)C)C3)c12 [Example 8, (R,E)-N-(1-(1-(4-(dimethylamino)but-2-enoyl)azepan-3-yl)-7-methyl-1H-benzo[d]imidazol-2-yl)-2-(trifluoromethyl)isonicotinamide]
152	0.101	0.008	< 0.001	0.006	0.002	3	8	C=CC(=O)N1CCCC[C@@H](n2c(NC(=O)c3ccnnc3)nc3ccc(OC)c(Cl)c32)C1 [Example 9, (R)—N-(1-(1-acryloylazepan-3-yl)-7-chloro-6-methoxy-1H-benzo[d]imidazol-2-yl)pyridazine-4-carboxamide]
2340	0.38	0.018	0.002	0.018	0.015	76	170	COc1ccc2nc(NC(=O)c3ccnnc3)n([C@@H]3CCCCN(C(=O)/C=C/CN(C)C)C3)c2c1Cl [Example 17-2]
237			< 0.001	0.007		1	17	C=CC(=O)N1CCCC[C@@H](n2c(NC(=O)c3cccc(F)c3F)nc3cc(CN4CC[C@@H](OC)C4)cc(C)c32)C1 [Example 17-160]
93			< 0.001	0.003		4	4	COc1ccc2nc(NC(=O)c3ccnc(C)c3)n([C@@H]3CCCCN(C(=O)/C=C/CN(C)C)C3)c2c1Cl [Example 17-177]
5400			0.012	0.23		234	188	COc1cc2nc(NC(=O)c3cc(C)nc(C)c3)n([C@@H]3CCCCN(C(=O)/C=C/CN(C)C)C3)c2cc1Cl [Example 17-179]
	> 10	> 10	0.041	2.59	6.3			C=CC(=O)N1CCC[C@@H](n2c(NC(=O)c3cccc(C(F)(F)F)c3)nc3cc(C(=O)O)ccc32)C1 [Example 18, (R)-1-(1-acryloylpiperidin-3-yl)-2-(3-(trifluoromethyl)benzamido)-1H-benzo[d]imidazole-5-carboxylic acid]
	> 10	3.3	0.005	0.11	0.82			C=CC(=O)N1CCCCC(n2c(NC(=O)c3cccc(C(F)(F)F)c3)nc3cccc(C(=O)O)c32)C1 (stereo not shown) [Example 20, 1-(1-acryloylazepan-3-yl)-2-(3-(trifluoromethyl)benzamido)-1H-benzo[d]imidazole-7-carboxylic acid]
